Test results taken from ChEMBL document CHEMBL5727862, “Inhibitors of plasma kallikrein and uses thereof” (2020).

test: Inhibitory Activity of Exemplary Compounds against Plasma Kallikrein: Example compounds were evaluated for inhibition of the human activated kallikrein enzyme in two formats of an assay employing a fluorogenic peptide substrate. In one assay format, the concentrations of reagents were as follows: 20 mM Tris pH 7.5, 1 mM EDTA, 150 mM sodium chloride, 0.1% PEG-400, 0.1% Triton X-100, 500 pM activated kallikrein enzyme, 300 uM Pro-Phe-Arg-7-amido-4-methylcoumarin substrate. Prior to reaction initiation with substrate, enzyme and inhibitors were preincubated for 30 min at RT. After initiation with substrate, reactions were incubated for 10 min at RT and fluorescence emission at 460 nm from 380 nm excitation measured with a microplate reader. In another assay format, the concentrations of reagents were as follows: 20 mM Tris pH 7.5, 1 mM EDTA, 150 mM sodium chloride, 0.1% PEG-400, 0.1% Triton X-100, 5 pM activated kallikrein enzyme, 300 uM Pro-Phe-Arg-7-amido-4-methylcoumarin substrate. Prior to reaction initiation with substrate, enzyme and inhibitors were preincubated for 30 min at RT. After initiation with substrate, reactions were incubated for 18 h at RT and fluorescence emission at 460 nm from 380 nm excitation measured with a microplate reader.

SMILES | EC50
CCOC(=O)C1CN(c2cc(C3CC3)cn3cc(Cn4cc(C(=O)NCc5ncn6ccc(Cl)c(F)c56)nn4)nc23)CCO1 (configuration not stated) | < 1 nM
CCOC(=O)c1cc(C2CC2)cn2cc(Cn3cc(C(=O)NCc4ncn5ccc(Cl)c(F)c45)nn3)nc12 | < 1 nM
O=C(NCc1cn2c(F)c(Cl)ccc2n1)c1cn(Cc2cn3cc(C4CC4)cc(Cc4nnc(C(=O)O)o4)c3n2)nn1 | < 1 nM
O=C(NCc1ncn2ccc(Cl)c(F)c12)c1cn(Cc2cn3nc(C4CC4)cc(CN4CCCC4)c3n2)nn1 | < 1 nM
CCOC(=O)c1cc(C2CC2)cn2cc(Cn3cc(C(=O)NCc4ncn5ccc(Cl)cc45)cn3)nc12 | < 1 nM
CC(c1cn2cc(C3CC3)cc(C3CCC(=O)O3)c2n1)n1cc(C(=O)NCc2ncn3ccc(Cl)c(F)c23)nn1 (configuration not stated) | < 1 nM
O=C(NCc1ncn2ccc(Cl)c(F)c12)c1cn(Cc2cn3cc(C4CC4)cc(CCl)c3n2)nn1 | < 1 nM
CCOC(=O)c1ccn(Cc2cc(C3CC3)cn3cc(Cn4cc(C(=O)NCc5ncn6ccc(Cl)c(F)c56)nn4)nc23)n1 | < 1 nM
O=C(OCc1ccccc1)c1cnn(Cc2cn3cc(C4CC4)cc(CO)c3n2)c1 | < 1 nM
O=C(NCc1cn2c(F)c(Cl)ccc2n1)c1cn(Cc2cn3cc(C4CC4)cc(Cc4nnco4)c3n2)nn1 | < 1 nM
CC(C)(C)OC(=O)c1ncc(-c2cc(C3CC3)cn3cc(Cn4cc(C(=O)NCc5ncn6ccc(Cl)c(F)c56)nn4)nc23)s1 | < 1 nM
O=C(NCc1ncn2ccc(Cl)c(F)c12)c1cn(Cc2cn3cc(C4CC4)ccc3n2)c(C(=O)O)n1 | < 1 nM
